PubChem BioAssay (NCI)
“And” between values parts separate entries of the source, which are not always exact repeats. Identical values can stand only once.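 Interpolation was linear, between the two tested concentrations surrounding the appropriate level; five concentrations were tested over 48 hours in 96-well plates. At the GI50, growth is halved. The concentration for full growth arrest is given as TGI.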

Key:
Test in all cases: growth of human tumour cells (NCI), 48 h
U251 CNS = tested on: U251 CNS
SNB-75 CNS = tested on: SNB-75 CNS
BT-549 breast = tested on: BT-549 breast
HCT-116 colon = tested on: HCT-116 colon
UACC-62 melanoma = tested on: UACC-62 melanoma
EKVX NSCLC = tested on: EKVX NSCLC
786-0 renal = tested on: 786-0 renal
K-562 leukemia = tested on: K-562 leukemia
T-47D breast = tested on: T-47D breast
LOX IMVI melanoma = tested on: LOX IMVI melanoma

Row | Structure (SMILES) | TGI (U251 CNS) | TGI (SNB-75 CNS) | TGI (BT-549 breast) | TGI (HCT-116 colon) | TGI (UACC-62 melanoma) | TGI (EKVX NSCLC) | TGI (786-0 renal) | TGI (K-562 leukemia) | TGI (T-47D breast) | TGI (LOX IMVI melanoma) | GI50 (SNB-75 CNS) | GI50 (U251 CNS) | GI50 (BT-549 breast) | GI50 (HCT-116 colon) | GI50 (UACC-62 melanoma) | GI50 (EKVX NSCLC) | GI50 (K-562 leukemia) | GI50 (LOX IMVI melanoma) | GI50 (786-0 renal) | GI50 (T-47D breast)
1 | CC(C)(C)NCc1cc(C(C)(C)C)cc(-c2ccc(Cl)cc2)c1O | 24.1 µM | 22.7 µM | 27.9 µM | 26 µM | 32 µM | 32.4 µM | 26.8 µM |  |  |  |  |  |  |  |  |  |  |  |  | 
2 | Nc1ccc(S(=O)(=O)C23CC4CC(CC(C4)C2)C3)cc1 | > 100 µM |  | > 100 µM | > 100 µM | > 100 µM | > 100 µM | > 100 µM | > 100 µM | > 100 µM | > 100 µM |  |  |  |  |  |  |  |  |  | 
3 | CN1c2ccccc2N(C)C2C1N(C)c1ccccc1N2C (configuration not stated) | > 100 µM | 71.1 µM |  | 42.4 µM | 24.9 µM | > 100 µM | > 100 µM | > 100 µM |  |  |  |  |  |  |  |  |  |  |  | 
4 | COC1OC(CO)C(O)C(O)C1Br (configuration not stated) | > 100 µM |  |  | > 100 µM | > 100 µM |  | > 100 µM | > 100 µM |  | > 100 µM |  |  |  |  |  |  |  |  |  | 
5 | CCOC(=O)C(CO)c1nc2c([nH]c1=O)c(=O)n(C)c(=O)n2C (configuration not stated) | > 100 µM |  | > 100 µM | > 100 µM | > 100 µM | > 100 µM | > 100 µM | > 100 µM | 60.8 µM | > 100 µM |  |  |  |  |  |  |  |  |  | 
6 | CO/C1=C\C(C)=C\C(C)C(O)C(C)C/C(C)=C/C=C/C(OC)C(C(C)C(O)C(C)C2(O)CC(O)C(C)C(C(C)C)O2)OC1=O (configuration not stated) | 17 µM |  |  |  | 0.00785 µM and 0.0254 µM | 4.93 µM | 10.4 µM | 13.7 µM |  | 2.64e-05 µM | 0.0396 µM |  |  |  |  |  |  |  |  | 
7 | COc1cc2noc(-c3ccccc3)c2cc1OC | > 100 µM | 35.4 µM |  | > 100 µM | > 100 µM |  | > 100 µM | > 100 µM |  | > 100 µM |  |  |  |  |  |  |  |  |  | 
8 | CN(C)CCCN1c2nc3ccccc3cc2Sc2cc3ccccc3nc21 | 3.08 µM |  | 2.84 µM | 2.31 µM | 2.8 µM | 3.23 µM | 2.5 µM | > 100 µM |  | 3.16 µM |  | 1.6 µM | 1.42 µM | 1.1 µM | 1.46 µM | 1.5 µM | 0.639 µM | 1.55 µM | 1.24 µM | 
9 | C(CCC[Te][Te]CCCCCCOC1CCCCO1)CCOC1CCCCO1 (configuration not stated) | 24.5 µM | 33.7 µM |  | 55.8 µM | 23.6 µM |  | 29.4 µM | 29.7 µM |  | 35.1 µM |  |  |  |  |  |  |  |  |  | 
10 | ClC(Cl)c1nc(-c2cccnc2)n2nc(-c3ccccc3)cc2n1 | 5.11 µM |  |  | 6.29 µM |  | 6.21 µM | > 100 µM | > 100 µM |  |  |  | 1.46 µM |  | 1.43 µM |  | 2.32 µM | 1.33 µM |  | 3.05 µM | 
11 | COc1cccc(C(=O)N2CCc3ccccc32)c1OC | > 100 µM | > 100 µM |  | > 100 µM | > 100 µM | > 100 µM | > 100 µM | > 100 µM |  | > 100 µM |  |  |  |  |  |  |  |  |  | 
12 | O=C(O)/C(=C/c1c(O)ccc2ccccc12)c1csc(-c2nc(/C(=C\c3c(O)ccc4ccccc34)C(=O)O)cs2)n1 | 30.3 µM | 23.2 µM |  | 23.3 µM | 23.3 µM | > 100 µM | 26.8 µM | 38.6 µM |  | 43.4 µM |  |  |  |  |  |  |  |  |  | 
13 | N=C(N=C(N)N)N1CCN(c2ccncc2)CC1 |  | > 1000 µM | > 1000 µM | > 1000 µM | > 1000 µM |  | > 1000 µM | > 1000 µM | > 1000 µM | > 1000 µM | > 1000 µM |  | > 1000 µM | > 1000 µM | > 1000 µM |  | > 1000 µM | > 1000 µM | > 1000 µM | > 1000 µM
14 | CC(=O)OC1CC2C(C)(C)C(=O)C=C[C@]2(C)C2CCC3(C)C(c4ccoc4)C(=O)[C@H]4O[C@]43[C@]12C (some centres not stated) | 32.9 µM | > 100 µM |  | 28.7 µM | 64.2 µM | 89.2 µM | 35.5 µM | 59.5 µM |  | 42.6 µM |  |  |  |  |  |  |  |  |  | 
15 | NC(=O)N/N=C/C(/C=N/NC(N)=O)[N+](=O)[O-] |  | > 100 µM |  | > 100 µM | > 100 µM | > 100 µM | > 100 µM | > 100 µM |  | > 100 µM |  |  |  |  |  |  |  |  |  | 
16 | COCC(=O)CP(=O)(OC)OC | > 100 µM | > 100 µM |  | > 100 µM | > 100 µM | > 100 µM | > 100 µM | > 100 µM |  | > 100 µM |  |  |  |  |  |  |  |  |  | 
17 | O=S(=O)(NCC1CCC(CNc2ccc(Cl)cc2)CC1)c1ccc(-c2ccccc2)cc1 (configuration not stated) | > 50 µM |  | > 50 µM | > 50 µM | > 50 µM | > 50 µM | > 50 µM | > 50 µM |  | > 50 µM |  | 23.5 µM | > 50 µM | 32.2 µM | > 50 µM | 25.7 µM | 17.4 µM | 45.7 µM | > 50 µM | 
18 | O=c1[nH]c(=O)n(C2OC(CO)C(O)C2O)c2c1CCCC2 (configuration not stated) | > 100 µM | > 100 µM |  | > 100 µM | > 100 µM | > 100 µM | > 100 µM | > 100 µM | > 100 µM | > 100 µM |  |  |  |  |  |  |  |  |  | 
19 | CC1(C)OC(=O)C=C([O-])O1.CC1(C)OC(=O)C=C([O-])O1.O=S(=O)([O-])c1ccc([O-])c2ncccc12.O=S(=O)([O-])c1ccc([O-])c2ncccc12.[Ti+4] |  | > 100 µM |  | > 100 µM | > 100 µM | > 100 µM | > 100 µM | > 100 µM |  | > 100 µM | > 100 µM |  |  | 41.8 µM | 79.9 µM | > 100 µM | > 100 µM | 46.7 µM | > 100 µM | 
20 | COc1ccc(-c2cc(/C=C3\C(=O)Nc4ccc(Cl)cc43)[nH]n2)cc1 | 12.1 µM | 8.49 µM | 19.3 µM | 14.1 µM | 18.5 µM |  | 17.4 µM | 13.1 µM | 14.6 µM |  | 2.26 µM | 3.16 µM | 6.85 µM | 4.13 µM | 5.56 µM |  | 2.56 µM |  | 5.28 µM | 3.62 µM
21 | Cc1c(C(=O)NCCO)[n+](=O)c2cc(Cl)ccc2n1[O-] | > 100 µM | > 100 µM |  | > 100 µM | > 100 µM | > 100 µM | > 100 µM | > 100 µM |  | > 100 µM |  |  |  |  |  |  |  |  |  | 
22 | CN(CN1C(=O)C2Cc3ccccc3CN2C1=O)c1ccccn1 (configuration not stated) | > 100 µM |  |  |  | > 100 µM |  | > 100 µM | > 100 µM |  | > 100 µM |  |  |  |  |  |  |  |  |  | 
23 | Nc1ccc2c(c1)NCCN2 | > 100 µM | > 100 µM | > 100 µM | > 100 µM | > 100 µM | > 100 µM | > 100 µM | > 100 µM |  | > 100 µM |  |  |  |  |  |  |  |  |  | 
